{
  "source": "patent US9981942B2",
  "about": "“Piperidine derivatives having multimodal activity against pain” (LABORATORIOS DEL DR. ESTEVE S.A., priority 2013, dated 2018)",
  "data": [
    {"test_system": "σ1 receptor and the μ-opiod receptor", "assay": "μ and σ1 dual binding: combined class from the Ki of both radioligand assays", "set-up": "species or system human; key to μ and σ1 dual binding: +: Both Ki-μ and Ki-σ1>=500 nM; ++: One Ki<500 nM while the other Ki is >=500 nM; +++: Both Ki-μ and Ki-σ1<500 nM; ++++: Both Ki-μ and Ki-σ1<100 nM", "settings": "combined class for Ki-μ and Ki-σ1; transfected HEK-293 membranes (σ1), transfected CHO-K1 cell membranes (μ)", "procedure": "(§1) To investigate binding properties of σ1 receptor ligands to human σ1 receptor, transfected HEK-293 membranes and [^3H](+)-pentazocine (Perkin Elmer, NET-1056), as the radioligand, were used. The assay was carried out with 7 μg of membrane suspension, 5 nM of [^3H](+)-pentazocine in either absence or presence of either buffer or 10 μM Haloperidol for total and non-specific binding, respectively. Binding buffer contained Tris-HCl 50 mM at pH 8. Plates were incubated at 37° C. for 120 minutes. After the incubation period, the reaction mix was then transferred to MultiScreen HTS, FC plates (Millipore), filtered and plates were washed 3 times with ice-cold 10 mM Tris-HCL (pH7.4). Filters were dried and counted at approximately 40% efficiency in a MicroBeta scintillation counter (Perkin-Elmer) using EcoScint liquid scintillation cocktail\n(§2) To investigate binding properties of mu-opioid receptor ligands to human μ-opioid receptor, transfected CHO-K1 cell membranes and [^3H]-DAMGO (Perkin Elmer, ES-542-C), as the radioligand, were used. The assay was carried out with 20 μg of membrane suspension, 1 nM of [^3H]-DAMGO in either absence or presence of either buffer or 10 μM Naloxone for total and non-specific binding, respectively. Binding buffer contained Tris-HCl 50 mM, MgCl2 5 mM at pH 7.4. Plates were incubated at 27° C. for 60 minutes. After the incubation period, the reaction mix was then transferred to MultiScreen HTS, FC plates (Millipore), filtered and plates were washed 3 times with ice-cold 10 mM Tris-HCL (pH 7.4). Filters were dried and counted at approximately 40% efficiency in a MicroBeta scintillation counter (Perkin-Elmer) using EcoScint liquid scintillation cocktail.\n(§3) The following scale as been adopted for representing the binding to the σ1 receptor and the μ-opiod receptor expressed as Ki: • + Both Ki-μ and Ki-σ1>=500 nM • ++ One Ki<500 nM while the other Ki is >=500 nM • +++ Both Ki-μ and Ki-σ1<500 nM • ++++ Both Ki-μ and Ki-σ1<100 nM", "values": [
      {"smiles": "CC(C)S(=O)(=O)Nc1cccc(C2CCN(Cc3cn(Cc4ncccc4F)nn3)CC2)n1", "note": "[Example 209, N-(6-(1-((1-((3-fluoropyridin-2-yl)methyl)-1H-1,2,3-triazol-4-yl)methyl)piperidin-4-yl)pyridin-2-yl)propane-2-sulfonamide]", "μ and σ1 dual binding": "++"},
      {"smiles": "c1ccc(Cn2cc(CN3CCC(c4cccc(-c5ncc[nH]5)c4)CC3)nn2)nc1", "note": "[Example 139, 2-((4-((4-(3-(1H-imidazol-2-yl)phenyl)piperidin-1-yl)methyl)-1H-1,2,3-triazol-1-yl)methyl)pyridine]", "μ and σ1 dual binding": "++"},
      {"smiles": "Oc1cccc(C2CCN(Cc3cn(-c4ncccc4O)nn3)CC2)c1", "note": "[Example 216, 2-(4-((4-(3-hydroxyphenyl)piperidin-1-yl)methyl)-1H-1,2,3-triazol-1-yl)pyridin-3-ol]", "μ and σ1 dual binding": "++"},
      {"smiles": "CCC(=O)Nc1cccc(C2CCN(Cc3cn(-c4ccccc4F)nn3)CC2)n1", "note": "[Example 211, N-(6-(1-((1-(2-fluorophenyl)-1H-1,2,3-triazol-4-yl)methyl)piperidin-4-yl)pyridin-2-yl)propionamide]", "μ and σ1 dual binding": "++"},
      {"smiles": "CC(C)S(=O)(=O)Nc1cccc(C2CCN(Cc3cncn3Cc3ccccn3)CC2)c1", "note": "[Example 187, N-(3-(1-((1-(pyridin-2-ylmethyl)-1H-imidazol-5-yl)methyl)piperidin-4-yl)phenyl)propane-2-sulfonamide]", "μ and σ1 dual binding": "++"},
      {"smiles": "CC(C)S(=O)(=O)Nc1cccc([C@@H]2CCN(Cc3cn(Cc4ccccc4)nn3)C[C@@H]2O)c1", "note": "[Example 123, N-(3-((3R,4S)-1-((1-benzyl-1H-1,2,3-triazol-4-yl)methyl)-3-hydroxypiperidin-4-yl)phenyl)propane-2-sulfonamide]", "μ and σ1 dual binding": "++"},
      {"smiles": "c1ccc(-n2cc(CN3CCC(c4ccc5cn[nH]c5c4)CC3)nn2)cc1", "note": "[Example 26, 6-(1-((1-phenyl-1H-1,2,3-triazol-4-yl)methyl)piperidin-4-yl)-1H-indazole]", "μ and σ1 dual binding": "++"},
      {"smiles": "O=C1Cc2c(cccc2C2CCN(Cc3cn(-c4ccccc4)nn3)CC2)N1", "note": "[Example 32, 4-(1-((1-phenyl-1H-1,2,3-triazol-4-yl)methyl)piperidin-4-yl)indolin-2-one]", "μ and σ1 dual binding": "++"},
      {"smiles": "CCC(=O)Nc1cccc(C2CCN(Cc3cn(Cc4ccccc4)nn3)CC2)n1", "note": "[Example 199, N-(6-(1-((1-benzyl-1H-1,2,3-triazol-4-yl)methyl)piperidin-4-yl)pyridin-2-yl)propionamide]", "μ and σ1 dual binding": "++"},
      {"smiles": "c1ccc(Cn2cc(CN3CCC(c4cccc(Nc5ccccn5)c4)CC3)nn2)nc1", "note": "[Example 231, N-(3-(1-((1-(pyridin-2-ylmethyl)-1H-1,2,3-triazol-4-yl)methyl)piperidin-4-yl)phenyl)pyridin-2-amine]", "μ and σ1 dual binding": "++"},
      {"smiles": "Oc1ccc(-n2cc(CN3CCC(c4cccc(O)c4)CC3)nn2)nc1", "note": "[Example 220, 6-(4-((4-(3-hydroxyphenyl)piperidin-1-yl)methyl)-1H-1,2,3-triazol-1-yl)pyridin-3-ol]", "μ and σ1 dual binding": "++"},
      {"smiles": "CCC(=O)Nc1cccc(C2CCN(Cc3cn([C@@H]4c5ccccc5C[C@H]4O)nn3)CC2)n1", "note": "[Example 204, N-(6-(1-((1-((1R,2R)-2-hydroxy-2,3-dihydro-1H-inden-1-yl)-1H-1,2,3-triazol-4-yl)methyl)piperidin-4-yl)pyridin-2-yl)propionamide]", "μ and σ1 dual binding": "++"}
    ]},
    {"molecular_target": "σ1 receptor and the μ-opiod receptor", "assay": "μ and σ1 dual binding: combined class from the Ki of both radioligand assays", "set-up": "species or system human; key to μ and σ1 dual binding: +: Both Ki-μ and Ki-σ1>=500 nM; ++: One Ki<500 nM while the other Ki is >=500 nM; +++: Both Ki-μ and Ki-σ1<500 nM; ++++: Both Ki-μ and Ki-σ1<100 nM", "settings": "transfected HEK-293 membranes (σ1), transfected CHO-K1 cell membranes (μ)", "procedure": "as §1, §2, §3", "units": {"Ki range for both μ and σ1 (dual-binding class)": "nM"}, "values": [
      {"smiles": "CC(=O)Nc1cccc(C2CCN(Cc3cn(-c4ccccc4)nn3)CC2)c1", "note": "[Example 9, N-(3-(1-((1-phenyl-1H-1,2,3-triazol-4-yl)methyl)piperidin-4-yl)phenyl)acetamide]", "Ki range for both μ and σ1 (dual-binding class)": "< 500"},
      {"smiles": "Oc1cccc(C2CCN(Cc3cn(Cc4ccc(F)cn4)nn3)CC2)c1", "note": "[Example 133, 3-(1-((1-((5-fluoropyridin-2-yl)methyl)-1H-1,2,3-triazol-4-yl)methyl)piperidin-4-yl)phenol]", "Ki range for both μ and σ1 (dual-binding class)": "< 500"},
      {"smiles": "Oc1cccc(C2CCN(Cc3cnn(Cc4ncccc4F)c3)CC2)c1", "note": "[Example 172, 3-(1-((1-((3-fluoropyridin-2-yl)methyl)-1H-pyrazol-4-yl)methyl)piperidin-4-yl)phenol]", "Ki range for both μ and σ1 (dual-binding class)": "< 500"},
      {"smiles": "Oc1cccc(C2CCN(Cc3cn(-c4cc(F)ccc4F)nn3)CC2)c1", "note": "[Example 223, 3-(1-((1-(2,5-difluorophenyl)-1H-1,2,3-triazol-4-yl)methyl)piperidin-4-yl)phenol]", "Ki range for both μ and σ1 (dual-binding class)": "< 100"},
      {"smiles": "Oc1cccc(C2CCN(Cc3cn(-c4ncccc4F)nn3)CC2)c1", "note": "[Example 154, 3-(1-((1-(3-fluoropyridin-2-yl)-1H-1,2,3-triazol-4-yl)methyl)piperidin-4-yl)phenol]", "Ki range for both μ and σ1 (dual-binding class)": "< 500"},
      {"smiles": "Oc1cccc(C2CCN(Cc3cn(-c4ncccc4Cl)nn3)CC2)c1", "note": "[Example 161, 3-(1-((1-(3-chloropyridin-2-yl)-1H-1,2,3-triazol-4-yl)methyl)piperidin-4-yl)phenol]", "Ki range for both μ and σ1 (dual-binding class)": "< 500"},
      {"smiles": "CCNC(=O)Nc1cccc(C2CCN(Cc3cn(Cc4ccccn4)nn3)CC2)c1", "note": "[Example 111, 1-ethyl-3-(3-(1-((1-(pyridin-2-ylmethyl)-1H-1,2,3-triazol-4-yl)methyl)piperidin-4-yl)phenyl)urea]", "Ki range for both μ and σ1 (dual-binding class)": "≥ 500"},
      {"smiles": "Oc1cccc(C2CCN(Cc3cn(C4CCc5ccccc54)nn3)CC2)c1", "note": "(centres unmarked) [Example 46, 3-(1-((1-(2,3-dihydro-1H-inden-1-yl)-1H-1,2,3-triazol-4-yl)methyl)piperidin-4-yl)phenol]", "Ki range for both μ and σ1 (dual-binding class)": "< 100"},
      {"smiles": "Oc1cccc(C2CCN(Cc3cn(-c4ccc(Cl)cc4Cl)nn3)CC2)c1", "note": "[Example 41, 3-(1-((1-(2,4-dichlorophenyl)-1H-1,2,3-triazol-4-yl)methyl)piperidin-4-yl)phenol]", "Ki range for both μ and σ1 (dual-binding class)": "< 100"},
      {"smiles": "CS(=O)(=O)Nc1cccc(C2CCN(Cc3cn(C4CCCCC4)nn3)CC2)c1", "note": "[Example 22, N-(3-(1-((1-cyclohexyl-1H-1,2,3-triazol-4-yl)methyl)piperidin-4-yl)phenyl)methanesulfonamide]", "Ki range for both μ and σ1 (dual-binding class)": "< 500"},
      {"smiles": "Oc1cccc(C2CCN(Cc3cn(-c4cc(C(F)(F)F)ccn4)nn3)CC2)c1", "note": "[Example 157, 3-(1-((1-(4-(trifluoromethyl)pyridin-2-yl)-1H-1,2,3-triazol-4-yl)methyl)piperidin-4-yl)phenol]", "Ki range for both μ and σ1 (dual-binding class)": "< 500"},
      {"smiles": "c1ccc(-n2cc(CN3CCC(c4cccc(-c5ncc[nH]5)c4)CC3)nn2)cc1", "note": "[Example 30, 4-(3-(1H-imidazol-2-yl)phenyl)-1-((1-phenyl-1H-1,2,3-triazol-4-yl)methyl)piperidine]", "Ki range for both μ and σ1 (dual-binding class)": "< 500"},
      {"smiles": "O=S(=O)(Nc1cccc(C2CCN(Cc3cn(-c4ccccc4F)nn3)CC2)n1)C1CC1", "note": "[Example 228, N-(6-(1-((1-(2-fluorophenyl)-1H-1,2,3-triazol-4-yl)methyl)piperidin-4-yl)pyridin-2-yl)cyclopropanesulfonamid]", "Ki range for both μ and σ1 (dual-binding class)": "< 500"},
      {"smiles": "Cc1ccc(C2CCN(Cc3cn(-c4ccccc4)nn3)CC2)cc1O", "note": "[Example 52, 2-methyl-5-(1-((1-phenyl-1H-1,2,3-triazol-4-yl)methyl)piperidin-4-yl)phenol]", "Ki range for both μ and σ1 (dual-binding class)": "< 100"},
      {"smiles": "Oc1ccc(-n2cc(CN3CCC(c4cccc(O)c4)CC3)nn2)cc1", "note": "[Example 107, 3-(1-((1-(4-hydroxyphenyl)-1H-1,2,3-triazol-4-yl)methyl)piperidin-4-yl)phenol]", "Ki range for both μ and σ1 (dual-binding class)": "< 100"},
      {"smiles": "CS(=O)(=O)Nc1cncc(C2CCN(Cc3cn(-c4ccccc4)nn3)CC2)c1", "note": "[Example 194, N-(5-(1-((1-phenyl-1H-1,2,3-triazol-4-yl)methyl)piperidin-4-yl)pyridin-3-yl)methanesulfonamide]", "Ki range for both μ and σ1 (dual-binding class)": "≥ 500"},
      {"smiles": "Oc1cccc(C2CCN(Cc3cn(Cc4cccc(F)n4)nn3)CC2)c1", "note": "[Example 132, 3-(1-((1-((6-fluoropyridin-2-yl)methyl)-1H-1,2,3-triazol-4-yl)methyl)piperidin-4-yl)phenol]", "Ki range for both μ and σ1 (dual-binding class)": "< 500"},
      {"smiles": "CCC(=O)Nc1cccc(C2CCN(Cc3cc(-c4ccccc4)no3)CC2)n1", "note": "[Example 201, N-(6-(1-((3-phenylisoxazol-5-yl)methyl)piperidin-4-yl)pyridin-2-yl)propionamide]", "Ki range for both μ and σ1 (dual-binding class)": "< 500"},
      {"smiles": "Oc1cccc(C2CCN(Cc3cn([C@@H]4Cc5ccccc5[C@H]4F)nn3)CC2)c1", "note": "[Example 72, 3-(1-((1-((1R,2R)-1-fluoro-2,3-dihydro-1H-inden-2-yl)-1H-1,2,3-triazol-4-yl)methyl)piperidin-4-yl)phenol]", "Ki range for both μ and σ1 (dual-binding class)": "< 100"},
      {"smiles": "Oc1cccc(C2CCN(Cc3cn(Cc4ccccc4)nn3)CC2)c1", "note": "[Example 8, 3-(1-((1-benzyl-1H-1,2,3-triazol-4-yl)methyl)piperidin-4-yl)phenol]", "Ki range for both μ and σ1 (dual-binding class)": "< 100"}
    ]}
  ]
}
